Target: T1, F508del (Homo sapiens, UniProt P13569, DEL508-508)
T1 construct: expressed in transfected cells
Assay: Protocol 2: FRET membrane potential optical assay (VIPR), identification of correction compounds
Assay type: cell-based
Conditions: Table 3; compounds of Table 1 as modulators of CFTR activity; protocol not stated
Outline: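 NIH3T3 mouse fibroblasts stably expressing F508del-CFTR incubated with compound 16 h at 37 °C in serum-free medium, then loaded with CC2-DMPE/DiSBAC2(3) FRET dyes. Channel activated with 10 μM forskolin plus 20 μM genistein in Cl⁻-free (gluconate) bath; depolarisation from Cl⁻ efflux read on VIPR II.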

T1 sequence (P13569 with tags, fused parts or gaps DEL508-508): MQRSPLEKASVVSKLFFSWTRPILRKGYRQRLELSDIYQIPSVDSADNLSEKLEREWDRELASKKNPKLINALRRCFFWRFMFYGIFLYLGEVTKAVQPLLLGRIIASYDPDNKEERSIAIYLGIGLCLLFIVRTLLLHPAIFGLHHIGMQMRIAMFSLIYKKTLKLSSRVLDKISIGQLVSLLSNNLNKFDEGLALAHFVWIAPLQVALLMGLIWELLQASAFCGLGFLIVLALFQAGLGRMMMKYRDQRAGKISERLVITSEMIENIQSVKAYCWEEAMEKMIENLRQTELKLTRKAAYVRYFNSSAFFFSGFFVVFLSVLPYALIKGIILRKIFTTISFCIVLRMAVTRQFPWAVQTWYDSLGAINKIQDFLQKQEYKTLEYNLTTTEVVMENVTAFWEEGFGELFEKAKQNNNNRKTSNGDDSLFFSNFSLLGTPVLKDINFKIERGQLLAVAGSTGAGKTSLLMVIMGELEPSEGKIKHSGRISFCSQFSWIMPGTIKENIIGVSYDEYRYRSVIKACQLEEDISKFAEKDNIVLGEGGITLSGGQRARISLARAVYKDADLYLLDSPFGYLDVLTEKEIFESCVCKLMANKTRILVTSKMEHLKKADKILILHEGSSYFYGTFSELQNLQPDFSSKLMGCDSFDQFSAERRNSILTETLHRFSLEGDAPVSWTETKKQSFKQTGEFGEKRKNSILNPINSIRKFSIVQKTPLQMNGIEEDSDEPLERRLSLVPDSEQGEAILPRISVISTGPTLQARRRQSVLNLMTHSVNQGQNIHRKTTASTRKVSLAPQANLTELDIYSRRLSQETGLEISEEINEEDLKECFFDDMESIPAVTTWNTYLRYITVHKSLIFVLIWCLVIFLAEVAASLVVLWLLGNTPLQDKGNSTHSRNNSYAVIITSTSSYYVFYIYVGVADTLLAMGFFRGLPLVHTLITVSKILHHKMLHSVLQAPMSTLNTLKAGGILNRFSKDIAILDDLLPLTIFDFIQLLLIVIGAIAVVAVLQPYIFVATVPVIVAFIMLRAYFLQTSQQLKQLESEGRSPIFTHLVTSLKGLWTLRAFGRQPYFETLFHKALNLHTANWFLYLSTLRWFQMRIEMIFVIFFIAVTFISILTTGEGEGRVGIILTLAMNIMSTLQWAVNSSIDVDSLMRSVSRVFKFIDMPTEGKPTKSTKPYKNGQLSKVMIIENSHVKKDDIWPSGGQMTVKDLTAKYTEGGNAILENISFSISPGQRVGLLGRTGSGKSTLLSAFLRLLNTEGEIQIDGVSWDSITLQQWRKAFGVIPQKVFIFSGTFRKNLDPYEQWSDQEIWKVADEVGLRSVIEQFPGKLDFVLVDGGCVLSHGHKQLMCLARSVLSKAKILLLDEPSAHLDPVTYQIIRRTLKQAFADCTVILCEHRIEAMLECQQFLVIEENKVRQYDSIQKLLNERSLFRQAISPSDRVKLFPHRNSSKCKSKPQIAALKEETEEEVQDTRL

SMILES	EC30
COc1ncccc1S(=O)(=O)NC(=O)c1cc2cc(C)ccc2n1Cc1c(C)cc(C)cc1C [Compound 267, N-[(2-methoxy-3-pyridyl)sulfonyl]-5-methyl-1-[(2,4,6-trimethylphenyl)methyl]indole-2-carboxamide]	+++ (“+++” means <3 uM)
Cc1cc(C)c(Oc2nc(CCc3ccccc3)ccc2C(=O)NS(=O)(=O)c2cccc(N)n2)c(C)c1 [Compound 268, N-[(6-amino-2-pyridyl)sulfonyl]-6-phenethyl-2-(2,4,6-trimethylphenoxy)pyridine-3-carboxamide]	+++ (“+++” means <3 uM)
Cc1cc(C)c(Cn2nc(C(C)(C)C)cc2C(=O)NS(=O)(=O)c2ccc(O)cc2)c(C)c1 [Compound 269, 5-tert-butyl-N-(4-hydroxyphenyl)sulfonyl-2-[(2,4,6-trimethylphenyl)methyl]pyrazole-3-carboxamide]	+++ (“+++” means <3 uM)
Cc1cc(C)c(Cn2nc(C(C)(C)C)cc2C(=O)NS(=O)(=O)c2cccc(N(C)C)c2)c(C)c1 [Compound 270, 5-tert-butyl-N-[3-(dimethylamino)phenyl]sulfonyl-2-[(2,4,6-trimethylphenyl)methyl]pyrazole-3-carboxamide]	+++ (“+++” means <3 uM)
CC(c1ccccc1)c1nc(C(C)(C)C)ccc1C(=O)NS(=O)(=O)c1cccc(N)c1 (stereo not shown) [Compound 271, N-(3-aminophenyl)sulfonyl-6-tert-butyl-2-(1-phenylethyl)pyridine-3-carboxamide]	+++ (“+++” means <3 uM)
CC(C)(C)c1ccc(C(=O)NS(=O)(=O)c2cccc(N)c2)c(Oc2ccccc2)n1 [Compound 272, N-(3-aminophenyl)sulfonyl-6-tert-butyl-2-phenoxy-pyridine-3-carboxamide]	++ (“++” means between 3 uM and 10 uM)
Cc1cc(C)c(Oc2nc(NC(C)(C)C)ccc2C(=O)NS(=O)(=O)c2cccc(N)n2)c(C)c1 [Compound 273, N-[(6-Amino-2-pyridyl)sulfonyl]-6-(tert-butylamino)-2-(2,4,6-trimethylphenoxy)pyridine-3-carboxamide]	+++ (“+++” means <3 uM)
Cc1ccc(-c2nc(C(C)(C)C)ccc2C(=O)NS(=O)(=O)c2cccc(N)c2)cc1C [Compound 274, N-(3-aminophenyl)sulfonyl-6-tert-butyl-2-(3,4-dimethylphenyl)pyridine-3-carboxamide]	+++ (“+++” means <3 uM)
Cc1cc(C)c(Oc2nc(C(C)(C)C)ccc2C(=O)NS(=O)(=O)c2cccc3[nH]ccc23)c(C)c1 [Compound 275, 6-tert-butyl-N-(1H-indol-4-ylsulfonyl)-2-(2,4,6-trimethylphenoxy)pyridine-3-carboxamide]	+++ (“+++” means <3 uM)
Cc1c(Cn2nc(C(C)(C)C)cc2C(=O)NS(=O)(=O)c2cccc3ccn(C)c23)cccc1C(F)(F)F [Compound 276, 5-tert-butyl-N-(1-methylindol-7-yl)sulfonyl-2-[[2-methyl-3-(trifluoromethyl)phenyl]methyl]pyrazole-3-carboxamide]	+++ (“+++” means <3 uM)
Cc1cccc(C)c1Cn1nc(-c2ccccc2OC(C)C)cc1C(=O)NS(=O)(=O)c1ccccc1 [Compound 277, N-(benzenesulfonyl)-2-[(2,6-dimethylphenyl)methyl]-5-(2-isopropoxyphenyl)pyrazole-3-carboxamide]	+++ (“+++” means <3 uM)
Cc1cc(C)c(Cn2nc(OC(C)c3ccccc3)cc2C(=O)NS(=O)(=O)c2cccc(N)c2)c(C)c1 (stereo not shown) [Compound 278, N-(3-aminophenyl)sulfonyl-5-(1-phenylethoxy)-2-[(2,4,6-trimethylphenyl)methyl]pyrazole-3-carboxamide]	++ (“++” means between 3 uM and 10 uM)
Cc1cc(C)c(Oc2nc(-c3cc(OCC(C)C)ccc3F)ccc2C(=O)NS(=O)(=O)c2ccc[nH]c2=O)c(C)c1 [Compound 279, 6-(2-fluoro-5-isobutoxy-phenyl)-N-[(2-oxo-1H-pyridin-3-yl)sulfonyl]-2-(2,4,6-trimethylphenoxy)pyridine-3-carboxamide]	+++ (“+++” means <3 uM)

Source: US10758534B2 (Vertex Pharmaceuticals Incorporated, priority 2014, dated 2020)
